{
  "source": "patent US7812039B2",
  "about": "“Drugs for chronic pains” (Nicox S.A., priority 2001, dated 2010)",
  "assay_type_in_all_cases": "in vivo",
  "key": {"Wistar adult rats": {"test_system": "Wistar adult rats", "test": "Neuropathic pain model, ligature of the right sciatic nerve (Bennett), withdrawal latencies", "settings": "14 days after ligature, percentage of control response", "method": "Wistar adult rats weighing about 200 grams were used, in the experimental model described by Bennett G J, Xie Y K, Pain 1988, 33(1): 87-107. The pain response (withdrawal latencies) is determined 14 days after the ligature of the right sciatic nerve. The results obtained are reported in Table 2 and have been expressed as a percentage ratio of the difference between the response from the intact paw and from the injured paw, to the response of the control animals, that have been injected with the carrier and undergone the nerve ligature. The groups were of 10 rats each."}, "Swiss male mice": {"test_system": "Swiss male mice", "test": "\"Paw-licking\" test (formalin injected in the paw)", "settings": "for Number \"paw licking\" %: 1 h before formalin, counted 15 min, percentage of control group", "method": "Four groups of Swiss male mice (20-25 g, Charles River) each formed by 10 animals, received by intraperitoneal injection Gabapentin (90 mg/kg) or the compound of formula (XVI) (Example 3), called NO-Gabapentin at the doses of 50 mg/kg, in a saline solution. The control group received the same volume of saline solution. One hour after the administration of the compound solutions, formalin (10 μl) was injected in the paw. In the 15 minutes subsequent to formalin administration, for each animal, the number of times wherein it licked its paw was counted. The analysis was carried out “in blind”."}, "Wistar adult male rats": {"test_system": "Wistar adult male rats", "test": "Acute toxicity in the diabetic animal (streptozocin)", "method": "In 50 Wistar adult male rats weighing 165-190 g, diabetes was induced by injection i.v. of a single dose of streptozocin (65 mg/kg in 1 ml/kg buffer citrate at pH 4.5).\nAfter one week the animals were distributed in three groups of 10 rats each and treated per os for three days with daily doses of 100 mg/kg of gabapentin and NO-gabapentin. The controls were treated only with streptozocin.\nDeath rate was monitored for 7 days from the last treatment."}, "[1]": {"test_system": "female Sprague-Dawley rats", "test": "Cold allodynia (ethyl chloride spray) in spinally-injured rats, acute administration", "from_the_text": "(§1) In 6 groups of female Sprague-Dawley rats weighting 200 g, photochemically-induced ischemic spinal cord injury was produced according to methods described by Xu et al. Pain, 1992, 48, 279-290. Spinally-injured rats developed a chronic pain syndrome, including marked mechanical and cold allodynia. The rats were injured 3-6 months before the beginning of the experiment.\n(§2) Each group of rats was i.p. treated, respectively, with one of the following compounds using one of the above indicated doses: • NO-gabapentin at doses of 20 mg/Kg (55 μmole/Kg), or 60 mg/Kg (167.21 μmole/Kg), or 100 mg/kg (278.7 μmole/Kg), dissolved in saline, single dose, i. p.); • gabapentin at doses of 30 mg/Kg ([…]) or 100 mg/kg ([…]), dissolved in saline, single dose i. p.); • the control group received the vehicle; The response to cold was tested by spray-applying ethyl chloride on the shaved allodynic skin area at time 0 (i.p. injection) and then at 30′, 120′ and 240′. The response was evaluated according to the following score: • 0=no response; • 1=localized response (skin twitch and contraction), no vocalization; • 2=transient vocalization, moderate struggle; • 3=sustained vocalization and aggression."}, "[2]": {"test_system": "female Sprague-Dawley rats", "test": "Mechanical allodynia (von Frey hairs, vocalization threshold) in spinally-injured rats, repeated administration", "settings": "for vocalization threshold (g) to mechanical stimulation with von Frey hairs: 1 hour after administration", "method": "In this experiment the effect of repeated administration of NO-gabapentin was assessed and compared with that of the precursor drug gabapentin in a rat model of neuropathic pain. In 4 groups of female Sprague-Dawley rats weighting 200 g photochemically-induced ischemic spinal cord injury was produced according to methods describe by Xu et al. Pain, 1992, 48, 279-290.\nSpinally-injured rats developed a chronic pain syndrome, including marked mechanical and cold allodynia. The rats were injured 3-6 months before the beginning of the experiment. Each of the groups of rats were i.p. treated daily for 10 day, respectively, with 60 mg/kg (167.2 μmole/Kg) of NO-gabapentin and with 30 mg/Kg (175 μmole/Kg) of gabapentin. Controls (two groups) received only the vehicle. Each day the treatment of the animals was made at the same time. During the experiment vocalized thresholds to graded mechanical touch/pressure were tested with von Frey hairs.\nDuring testing, rats were gently restrained in a standing position and the von Frey hair was pushed onto the skin until filament becomes bent. The frequency of stimulation was about 1/s and repeated 5-10 times. The intensity of stimulation (g) which induced consistent vocalization (>75% response rate) is considered as pain threshold. Behavioral testings were carried out before the daily for the control group and 1 hour after administration for the treated groups."}, "[3]": {"test_system": "female Sprague-Dawley rats", "test": "Motor performance (combined testing system) in spinally-injured rats", "from_the_text": "as §1, §2\nThe effect of the compounds on motor activity was also evaluated using a combined testing system as described in Hao, J. X. and Xu, X. J., Pain, 1996, 66, 279-286."}},
  "data": [
    {"smiles": "CN(C)CCCN1c2ccccc2CCc2ccc(Cl)cc21", "note": "[Clomipramine, clomipramine]", "values": [
      {"measurement": "response %", "setting": "Wistar adult rats; clomipramine 10 mg/kg i.p.", "result": 72, "unit": "%"}
    ]},
    {"smiles": "Cl.NCC1(CC(=O)Oc2cccc(CO[N+](=O)[O-])c2)CCCCC1", "note": "[NO-gabapentin, 1-(aminomethyl)cyclohexan acetic acid 3-(nitrooxymethyl)phenyl hydrochloride ester]", "values": [
      {"measurement": "Number \"paw licking\" %", "setting": "Swiss male mice; 50 mg/kg i.p.", "result": 70, "unit": "%"},
      {"measurement": "inhibition of \"paw-licking\" compared with starting drug, in words", "setting": "Swiss male mice; NO-gabapentin 50 mg/kg vs Gabapentin 90 mg/kg i.p.", "result": "more active than the starting drug"},
      {"measurement": "death rate with respect to animals treated with gabapentin", "setting": "Wistar adult male rats; diabetic animals, 100 mg/kg per os for three days", "result": "less than half"},
      {"measurement": "response to cold stimulation, score (0-3)", "setting": "[1]; 55.7 μmole/kg i.p. single dose, time 0 min", "result": 2},
      {"measurement": "response to cold stimulation, score (0-3)", "setting": "[1]; 55.7 μmole/kg i.p. single dose, time 30 min", "result": 2},
      {"measurement": "response to cold stimulation, score (0-3)", "setting": "[1]; 55.7 μmole/kg i.p. single dose, time 120 min", "result": 2},
      {"measurement": "response to cold stimulation, score (0-3)", "setting": "[1]; 167.2 μmole/kg i.p. single dose, time 0 min", "result": 2},
      {"measurement": "response to cold stimulation, score (0-3)", "setting": "[1]; 167.2 μmole/kg i.p. single dose, time 30 min", "result": 1},
      {"measurement": "response to cold stimulation, score (0-3)", "setting": "[1]; 167.2 μmole/kg i.p. single dose, time 120 min", "result": 1},
      {"measurement": "response to cold stimulation, score (0-3)", "setting": "[1]; 278.7 μmole/kg i.p. single dose, time 0 min", "result": 2},
      {"measurement": "response to cold stimulation, score (0-3)", "setting": "[1]; 278.7 μmole/kg i.p. single dose, time 30 min", "result": 1},
      {"measurement": "response to cold stimulation, score (0-3)", "setting": "[1]; 278.7 μmole/kg i.p. single dose, time 120 min", "result": 1},
      {"measurement": "response to cold stimulation, score (0-3)", "setting": "[1]; 278.7 μmole/kg i.p. single dose, time 240 min", "result": 1},
      {"measurement": "duration of significant effect on cold allodynia", "setting": "[1]; 60 mg/kg (167.21 μmole/Kg) i.p.", "result": 120, "unit": "min"},
      {"measurement": "duration of significant effect on cold allodynia", "setting": "[1]; 100 mg/kg (278.7 μmole/Kg) i.p.", "result": 240, "unit": "min"},
      {"measurement": "effect on cold allodynia, in words", "setting": "[1]; acute administration, 20, 60 or 100 mg/kg i.p.", "result": "alleviated in a dose-dependent way cold allodynia"},
      {"measurement": "vocalization threshold (g) to mechanical stimulation with von Frey hairs", "setting": "[2]; 167.2 μmole/kg i.p. daily, Day 1", "result": 100, "unit": "g"},
      {"measurement": "vocalization threshold (g) to mechanical stimulation with von Frey hairs", "setting": "[2]; 167.2 μmole/kg i.p. daily, Day 2", "result": 200, "unit": "g"},
      {"measurement": "vocalization threshold (g) to mechanical stimulation with von Frey hairs", "setting": "[2]; 167.2 μmole/kg i.p. daily, Day 4", "result": 400, "unit": "g"},
      {"measurement": "vocalization threshold (g) to mechanical stimulation with von Frey hairs", "setting": "[2]; 167.2 μmole/kg i.p. daily, Day 6", "result": 90, "unit": "g"},
      {"measurement": "maintenance of significant effect on mechanical allodynia, in words", "setting": "[2]; 60 mg/kg (167.2 μmole/Kg) i.p. daily", "result": "a significant effect was maintained up to day 6"},
      {"measurement": "effect on mechanical allodynia, in words", "setting": "[2]; 60 mg/kg (167.2 μmole/Kg) i.p. daily for 10 day", "result": "alleviated mechanical allodynia following the first administration"}
    ]},
    {"smiles": "CC(=O)Oc1ccccc1C(=O)Oc1cccc(CO[N+](=O)[O-])c1", "note": "[NO-ASA, 2-acetylsalicylic acid (3-nitrooxymethyl)phenyl ester]", "values": [
      {"measurement": "response %", "setting": "Wistar adult rats; NO-ASA 100 mg/Kg p.o.", "result": 82, "unit": "%"}
    ]},
    {"smiles": "NCC1(CC(=O)O)CCCCC1", "note": "[Gabapentin]", "values": [
      {"measurement": "Number \"paw licking\" %", "setting": "Swiss male mice; 90 mg/kg i.p.", "result": 80, "unit": "%"},
      {"measurement": "lethality %", "setting": "Wistar adult male rats; 100 mg/kg per os daily for three days, diabetic rats, monitored 7 days from last treatment", "result": 50, "unit": "%"},
      {"measurement": "response to cold stimulation, score (0-3)", "setting": "[1]; 175 μmole/kg i.p. single dose, time 0 min", "result": 2},
      {"measurement": "response to cold stimulation, score (0-3)", "setting": "[1]; 175 μmole/kg i.p. single dose, time 30 min", "result": 2},
      {"measurement": "response to cold stimulation, score (0-3)", "setting": "[1]; 175 μmole/kg i.p. single dose, time 120 min", "result": 2},
      {"measurement": "response to cold stimulation, score (0-3)", "setting": "[1]; 175 μmole/kg i.p. single dose, time 240 min", "result": 2},
      {"measurement": "antiallodynic effect (cold), in words", "setting": "[1]; 30 mg/Kg (175 μmole/Kg) i.p.", "result": "did not produce a significant antiallodynic effect"},
      {"measurement": "motor performance (score)", "setting": "[3]; 175 μmole/kg i.p., time 0 min", "result": 20},
      {"measurement": "motor performance (score)", "setting": "[3]; 175 μmole/kg i.p., time 30 min", "result": 20},
      {"measurement": "motor performance (score)", "setting": "[3]; 175 μmole/kg i.p., time 120 min", "result": 20},
      {"measurement": "motor performance (score)", "setting": "[3]; 175 μmole/kg i.p., time 240 min", "result": 20},
      {"measurement": "motor performance (score)", "setting": "[3]; 584 μmole/kg i.p., time 0 min", "result": 15},
      {"measurement": "motor performance (score)", "setting": "[3]; 584 μmole/kg i.p., time 30 min", "result": 30},
      {"measurement": "motor performance (score)", "setting": "[3]; 584 μmole/kg i.p., time 120 min", "result": 30},
      {"measurement": "motor performance (score)", "setting": "[3]; 584 μmole/kg i.p., time 240 min", "result": 25},
      {"measurement": "effect on motor activity, in words", "setting": "[3]; 100 mg/kg (584 μmole/Kg) i.p.", "result": "induced motor impairment and sedation"},
      {"measurement": "vocalization threshold (g) to mechanical stimulation with von Frey hairs", "setting": "[2]; 175 μmole/kg i.p. daily, Day 1", "result": 5, "unit": "g"},
      {"measurement": "vocalization threshold (g) to mechanical stimulation with von Frey hairs", "setting": "[2]; 175 μmole/kg i.p. daily, Day 2", "result": 6, "unit": "g"},
      {"measurement": "vocalization threshold (g) to mechanical stimulation with von Frey hairs", "setting": "[2]; 175 μmole/kg i.p. daily, Day 4", "result": 70, "unit": "g"},
      {"measurement": "vocalization threshold (g) to mechanical stimulation with von Frey hairs", "setting": "[2]; 175 μmole/kg i.p. daily, Day 6", "result": 90, "unit": "g"},
      {"measurement": "effect on mechanical allodynia, in words", "setting": "[2]; 30 mg/Kg (175 μmole/Kg) i.p. daily for 10 day", "result": "did not produce a significant effect up to the second day"},
      {"measurement": "effect on mechanical allodynia compared with NO-gabapentin, in words", "setting": "[2]; gabapentin 30 mg/Kg vs NO-gabapentin 60 mg/kg i.p. daily", "result": "the effect was lower than that of NO-gabapentin"}
    ]}
  ]
}
